Experimental data as given in PMC2989343 (Bioorganic & medicinal chemistry, 2010).

Assays:
[1] = biological target: human butyrylcholinesterase (BChE, EC 3.1.1.8) (Homo sapiens, UniProt P06276); test: Inhibition of freshly prepared human plasma BChE; type: biochemical; settings: from 60 to 18,000 nM
[2] = biological target: human acetylcholinesterase (AChE, EC 3.1.1.7) (Homo sapiens, UniProt P22303); test: Inhibition of freshly prepared human erythrocyte AChE
cholinesterase = settings: cited from earlier work
[3] = Observation for acute cholinergically-mediated adverse effects in rat; settings: anesthetized rat, 10 mg/kg i.p.

Sequence of human acetylcholinesterase (AChE, EC 3.1.1.7) (P22303 32-617 isoform P22303-2 limits assumed): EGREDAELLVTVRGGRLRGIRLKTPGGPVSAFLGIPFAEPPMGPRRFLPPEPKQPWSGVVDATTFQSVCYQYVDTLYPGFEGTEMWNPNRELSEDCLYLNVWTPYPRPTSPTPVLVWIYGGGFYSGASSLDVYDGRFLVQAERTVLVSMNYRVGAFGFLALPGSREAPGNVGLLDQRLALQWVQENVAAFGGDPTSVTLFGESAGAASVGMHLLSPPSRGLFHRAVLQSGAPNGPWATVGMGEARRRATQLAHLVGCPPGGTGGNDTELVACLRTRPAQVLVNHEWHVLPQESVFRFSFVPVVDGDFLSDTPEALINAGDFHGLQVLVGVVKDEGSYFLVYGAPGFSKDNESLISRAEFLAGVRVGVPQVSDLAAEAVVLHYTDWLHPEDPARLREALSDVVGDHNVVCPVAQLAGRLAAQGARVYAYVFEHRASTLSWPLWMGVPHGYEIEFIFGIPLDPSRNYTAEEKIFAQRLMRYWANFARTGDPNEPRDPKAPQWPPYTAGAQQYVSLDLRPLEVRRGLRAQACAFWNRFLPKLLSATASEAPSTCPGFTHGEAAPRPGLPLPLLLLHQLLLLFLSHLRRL
Sequence of human butyrylcholinesterase (BChE, EC 3.1.1.8) (P06276 29-602): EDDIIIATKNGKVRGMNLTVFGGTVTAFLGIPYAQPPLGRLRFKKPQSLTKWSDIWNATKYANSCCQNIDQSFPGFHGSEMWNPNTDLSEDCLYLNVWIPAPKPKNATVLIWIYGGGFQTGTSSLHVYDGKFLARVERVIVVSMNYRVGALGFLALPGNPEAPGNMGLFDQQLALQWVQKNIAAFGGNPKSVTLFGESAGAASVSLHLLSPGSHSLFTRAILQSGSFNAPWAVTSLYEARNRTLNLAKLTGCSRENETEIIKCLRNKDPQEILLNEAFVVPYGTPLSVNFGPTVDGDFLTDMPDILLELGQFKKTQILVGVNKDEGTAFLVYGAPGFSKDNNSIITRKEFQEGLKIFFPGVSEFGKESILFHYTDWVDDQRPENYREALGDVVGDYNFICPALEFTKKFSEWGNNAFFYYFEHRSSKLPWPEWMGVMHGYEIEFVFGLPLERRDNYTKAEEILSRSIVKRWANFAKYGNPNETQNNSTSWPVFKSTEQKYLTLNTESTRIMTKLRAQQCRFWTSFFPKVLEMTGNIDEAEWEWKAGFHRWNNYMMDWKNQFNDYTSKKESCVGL

For COS(=O)(=O)[O-].C[N+](C)(C)c1cccc(OC(=O)Nc2ccccc2)c1 [Compound 6, N-Phenylcarbamate of 3-phenol-1-trimethylammonium methylsulfate], which “fold decline of BChE IC50 value relative to neostigmine (3)” value [1] is on record?
Its value is 300 fold.

With O=C(Nc1ccccc1)Oc1cccnc1 [Compound 7, N-Phenylcarbamate of 3-hydroxypyridine] as the compound, how does the “Selectivity A/B or B/A” value ([2]; given in words only, no ratio) read?
The value was “None”.

Which “AChE inhibitory activity (in words)” value ([2]; human AChE, versus pyridostigmine (4)) does the source give for C[n+]1cccc(OC(=O)Nc2ccccc2)c1.[Br-] [Compound 8, N-Phenylcarbamate of 3-hydroxy-1-methylpyridinium bromide] here?
Its value is “entire loss of AChE activity”.

With CNC(=O)Oc1ccc2c(c1)[C@]1(C)CCN(C)[C@@H]1N2C [Compound 9, (−)-Physostigmine] as the compound, how does the “human pharmacodynamic half-life (T1/2)” value (cholinesterase) read?
The value was 30 min.

Which “central (tremor) or peripheral (lacrimation and salivation) cholinergically-mediated adverse effects” value [3] does the source give for CC(C)c1ccc(NC(=O)Oc2ccc3c(c2)[C@]2(C)CC[N+](C)(C)C2N3C)cc1.[Br-] (stereo partly drawn) [Compound 16, N(1)-Methylammonium bromide of (−)-cymserine] here?
Its value is “No central (tremor) or peripheral (lacrimation and salivation) cholinergically-mediated adverse effects were evident”.
